Experiments:
delF508-CFTR [1] = molecular target: T1, delF508-CFTR (Homo sapiens, UniProt P13569, DEL508-508); assay: Measurement of delF508-CFTR-HRP surface expression in CFBE41o- cells; format: cell-based; settings: for EC50: HRP-tagged delF508-CFTR surface expression, CFBE41o- cells, 24 h with compound, 10-point curve, highest concentration 10 μM; for Emax: CFBE41o-, read-out: DelF508-CFTR-HRP Amax %
T1 construct: expressed in transfected cells
Outline: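 CFBE41o- cells stably expressing delF508-CFTR with HRP in the fourth extracellular loop, induced 48 h with 500 ng/mL doxycycline, then exposed to compound (10-point, 3-fold, top 10 μM, ≤0.5% DMSO) for 24 h at 37° C. Surface HRP read by luminescence with cell-impermeant substrate; EC50 by logistic fit, triplicates, efficacy relative to reference corrector.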

delF508-CFTR [2] = molecular target: T1, delF508-CFTR; assay: Measurement of delF508-CFTR functional activity in primary human bronchial epithelial cells (HBECs) using MTECC-24 assay; format: cell-based; settings: for EC50: primary human delF508-CFTR bronchial epithelial cells, 24 hr compound treatment, equivalent short circuit current, forskolin and potentiator, mean of at least two replicates, read-out: MTECC24 CFHBEC EC50; for MTECC24 CFHBEC Amax %: test compound (24 h) with potentiator (S)-3-amino-6-methoxy-N-(3,3,3-trifluoro-2-hydroxy-2-methylpropyl)-5-(trifluoromethyl)picolinamide, relative to 2 μM 3-(6-(1-(2,2-difluorobenzo[d][1,3]dioxol-5-yl)cyclopropane-1-carboxamido)-3-methylpyridin-2-yl)benzoic acid plus 0.5 μM N-(2,4-di-tert-butyl-5-hydroxyphenyl)-4-oxo-1,4-dihydroquinoline-3-carboxamide
Excerpt: Measurement of delF508-CFTR Functional Activity in Primary Human Bronchial Epithelial Cells (HBECs) Using Multi-Transepithelial Clamp Circuit (MTECC-24) Assay
This assay measures the functional activity of the CFTR channel (Chloride ion transport) in patient derived primary human bronchial epithilial cells with forskolin activation and in the presence of the CFTR corrector/potentiator combination.
Primary human delF508-CFTR bronchial epithelial cells were and cultured according to previously established methods (Neuberger, T. et, al., Methods in Molecular Biology, 2011, 741, pp 39-54). Briefly, before thawing the HBEC cells, T25 flasks were coated with 2 mL of 3T3 conditioned media (MTI-GlobalStem, Cat #GSM9100) for at least 12 hours in 37° C. CO2 incubator. 1.7×10^5 cells were seeded into one T25 flask with 5 mL of HBE growth media (BEBM with supplements (Lonza, Cat #CC-3170) with 10 nM of retinoic acid (Sigma, Cat #R-2625) and 1% of PSA (Hyclone, Cat #SV30079.01). Media was changed every day till the cells were 100% confluent. Cells were seeded into T75 flasks (pre-coated with 5 mL of 3T3 conditioned media for more than 12 hrs) at 4.95×10^5 cells/T75 flask in 15 mL of HBE growth media. Flasks were fed everyday with fresh HBE growth media until the cells were confluent. 24-well transwell plates (Corning, Cat #3378) were coated with 3T3 conditioned media (70 μL on top of the filter, 350 μL to the bottom of the well) overnight in the 37° C. CO2 incubator. Cells were seeded in the pre-coated 24-well transwell plates at 1.7×10^5 cell/well with 700 μL of growth media at the bottom of the well and 200 μL of growth media at the top of the filter. After 24 hrs, cells were switched into HBE differentiation media ((DMEM/F12 (Gibco, Cat #11330-032) supplement with 2% Ultroser G (Pall, Cat #15950-017), 2% of Fetal Clone II (Hyclone, Cat #SH30066.03), 0.25% Bovine Brain Extract (Lonza, Cat #CC-4098), 1% of PSA, 2.5 μg/mL of Insulin (Sigma, Cat #19278), 20 nM of Hydrocortisone (Sigma, Cat #H0888), 500 nM of Triiodothyronine (Sigma, Cat #T6397), 2.5 μg/mL of Transferrin (Sigma, Cat #T8158), 250 nM of Ethanolamine (Sigma, Cat #E0135), 1.5 μM of Epinephrine (Sigma, Cat #E4250), 250 nM of Phosphoethanolamine (Sigma, Cat #P0503), 10 nM of retinoic acid)) with 200 μL on top of the filter (apical side) and 700 μL at the bottom of the well (basolateral side). Cells were fed every other day with the differentiation media. After 4 days, cells were exposed to air/liquid interface. Then cells were fed every other day for 4 weeks before fully differentiated.
Cells were washed with 3 mM DTT in PBS at 70 ul/well for 30 min at 37° C. 6 days before the assay. 3 days before the assay, cells were washed again with PBS at 70 ul/well for 30 min at 37° C. Then cells were treated with compound for 24 hrs before the assay.
Following 24 hr treatment with compound, cells were transferred into plates containing 750 ul of assay media on basolateral side and 250 ul on apical side (Assay medium: F-12 Coon's modified, 20 mM HEPES pH7.4 with TRIS Base, No FCS or bicarbonate). The plates wee then transferred to the heated plate compartments (basolateral buffer temperature ˜36.5° C. on the heating block) of the TECC24 system for 45 mins prior to measurements.
Modulators were added sequentially as follows while the TECC24 instrument recorded the equivalent short circuit current (Ieq):
Prior to dilution into assay medium the stocks were as follows: Benzamil stock: 10 mM in DMSO
Forskolin Stock: 50 mM in DMSO
N-(2,4-di-tert-butyl-5-hydroxyphenyl)-1,4-dihydro-4-oxoquinoline-3-carboxamide: 50 mM in DMSO (S)-3-amino-6-methoxy-N-(3,3,3-trifluoro-2-hydroxy-2-methylpropyl)-5-(trifluoromethyl)picolinamide: 50 mM stock 100% DMSO Bumetanide stock: 20 mM in EtOH
The data was normalized using the median signal from wells treated with 0.1% DMSO as a baseline. Curve fitting and EC50 calculations were performed using the following equation: […]

[3] = efficacy relative to reference compound 3-(6-(1-(2,2-difluorobenzo[d][1,3]dioxol-5-yl)cyclopropane-1-carboxamido)-3-methylpyridin-2-yl)benzoic acid

T1 sequence (P13569 with tags, fused parts or gaps DEL508-508): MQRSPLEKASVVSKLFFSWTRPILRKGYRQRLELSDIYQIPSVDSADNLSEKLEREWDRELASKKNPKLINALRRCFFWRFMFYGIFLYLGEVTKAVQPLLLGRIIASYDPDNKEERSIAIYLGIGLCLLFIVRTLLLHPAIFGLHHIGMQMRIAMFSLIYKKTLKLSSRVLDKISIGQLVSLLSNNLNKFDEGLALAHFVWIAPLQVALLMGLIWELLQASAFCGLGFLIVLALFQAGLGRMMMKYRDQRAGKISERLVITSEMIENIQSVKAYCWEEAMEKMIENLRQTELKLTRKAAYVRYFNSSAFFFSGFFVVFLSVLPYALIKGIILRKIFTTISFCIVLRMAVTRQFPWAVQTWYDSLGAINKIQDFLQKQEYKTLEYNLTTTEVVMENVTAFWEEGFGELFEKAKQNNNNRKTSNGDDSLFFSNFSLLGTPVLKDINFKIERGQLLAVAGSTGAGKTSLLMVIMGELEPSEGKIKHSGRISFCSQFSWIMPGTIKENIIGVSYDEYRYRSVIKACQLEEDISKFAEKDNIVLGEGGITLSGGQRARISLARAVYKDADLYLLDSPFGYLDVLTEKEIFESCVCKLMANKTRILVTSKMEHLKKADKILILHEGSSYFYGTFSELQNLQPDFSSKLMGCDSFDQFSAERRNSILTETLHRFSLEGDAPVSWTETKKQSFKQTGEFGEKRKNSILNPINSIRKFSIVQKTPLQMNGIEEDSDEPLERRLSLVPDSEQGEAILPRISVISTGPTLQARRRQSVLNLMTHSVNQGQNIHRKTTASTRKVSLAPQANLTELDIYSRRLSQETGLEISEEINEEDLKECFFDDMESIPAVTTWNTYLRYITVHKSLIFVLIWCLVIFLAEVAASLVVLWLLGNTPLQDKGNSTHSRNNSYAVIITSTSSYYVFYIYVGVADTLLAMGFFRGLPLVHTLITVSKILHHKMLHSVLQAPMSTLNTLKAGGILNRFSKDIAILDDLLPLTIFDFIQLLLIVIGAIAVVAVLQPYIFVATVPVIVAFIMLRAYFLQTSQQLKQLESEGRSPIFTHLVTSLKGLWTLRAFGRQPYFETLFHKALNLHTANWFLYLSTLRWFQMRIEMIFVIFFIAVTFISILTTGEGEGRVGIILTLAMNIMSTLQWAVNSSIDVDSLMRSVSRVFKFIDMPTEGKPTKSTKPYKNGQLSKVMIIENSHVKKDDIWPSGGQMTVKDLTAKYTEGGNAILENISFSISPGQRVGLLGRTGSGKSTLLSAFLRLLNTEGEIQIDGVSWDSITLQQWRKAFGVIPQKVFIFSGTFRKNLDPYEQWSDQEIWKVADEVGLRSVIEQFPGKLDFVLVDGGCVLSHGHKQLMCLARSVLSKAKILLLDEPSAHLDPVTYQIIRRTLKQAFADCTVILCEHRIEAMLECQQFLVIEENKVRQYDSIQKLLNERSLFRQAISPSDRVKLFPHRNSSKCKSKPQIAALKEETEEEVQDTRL

| EC50 (delF508-CFTR [1]) | DelF508-CFTR-HRP Amax % (delF508-CFTR [1]; [3]) | EC50 (delF508-CFTR [2]) | MTECC24 CFHBEC Amax % (delF508-CFTR [2]) | Emax (delF508-CFTR [1]; [3]) | Compound |
| --- | --- | --- | --- | --- | --- |
| 2030 nM | 719.0% | 100 nM | 69.2% |  | 3-(4,4-dioxido-2^3-(trifluoromethyl)-9-oxa-4-thia-3,6-diaza-2,5(2,6)-dipyridina-1(1,2)-benzenacyclododecaphane-6-yl)propanoic acid [Compound 98] |
| 177 nM |  | 3.1 nM | 132.0% | 829% | CC(C)(CO)CN1CCCCCc2ccccc2-c2nc(ccc2C(F)(F)F)NS(=O)(=O)c2cccc1n2 [Compound 27, 6-(3-hydroxy-2,2-dimethylpropyl)-2^3-(trifluoromethyl)-4-thia-3,6-diaza-2,5(2,6)-dipyridina-1(1,2)-benzenacycloundecaphane 4,4-dioxide] |
| 1220 nM |  |  |  | 226% | O=S1(=O)Nc2ccc(C(F)(F)F)c(n2)-c2ccccc2CCCCCN(CCN2CCCC2)c2cccc1n2 [Compound 122, 6-(2-(pyrrolidin-1-yl)ethyl)-2^3-(trifluoromethyl)-4-thia-3,6-diaza-2,5(2,6)-dipyridina-1(1,2)-benzenacycloundecaphane 4,4-dioxide] |
| 1840 nM |  |  |  | 308% | O=S1(=O)Nc2ccc(C(F)(F)F)c(n2)-c2ccccc2CCCCCN(CCN2C[C@H](O)[C@@H](O)C2)c2cccc1n2 [Compound 123, 6-(2-((3S,4S)-3,4-dihydroxypyrrolidin-1-yl)ethyl)-2^3-(trifluoromethyl)-4-thia-3,6-diaza-2,5(2,6)-dipyridina-1(1,2)-benzenacycloundecaphane 4,4-dioxide] |
| 1640 nM |  |  |  | 382% | O=S1(=O)Nc2ccc(C(F)(F)F)c(n2)-c2ccccc2CCCCCN(CCN2CC(O)C2)c2cccc1n2 [Compound 124, 6-(2-(3-hydroxyazetidin-1-yl)ethyl)-2^3-(trifluoromethyl)-4-thia-3,6-diaza-2,5(2,6)-dipyridina-1(1,2)-benzenacycloundecaphane 4,4-dioxide] |
| 931 nM |  |  |  | 162% | CN1CCN(CCN2CCCCCc3ccccc3-c3nc(ccc3C(F)(F)F)NS(=O)(=O)c3cccc2n3)CC1 [Compound 125, 6-(2-(4-methylpiperazin-1-yl)ethyl)-2^3-(trifluoromethyl)-4-thia-3,6-diaza-2,5(2,6)-dipyridina-1(1,2)-benzenacycloundecaphane 4,4-dioxide] |
| 831 nM |  |  |  | 488% | COC(=O)CNCCN1CCCCCc2ccccc2-c2nc(ccc2C(F)(F)F)NS(=O)(=O)c2cccc1n2 [Compound 126, methyl (2-(4,4-dioxido-2^3-(trifluoromethyl)-4-thia-3,6-diaza-2,5(2,6)-dipyridina-1(1,2)-benzenacycloundecaphane-6-yl)ethyl)glycinate] |
| 3630 nM |  |  |  | 93.6% | O=C(O)CNCCN1CCCCCc2ccccc2-c2nc(ccc2C(F)(F)F)NS(=O)(=O)c2cccc1n2 [Compound 127, (2-(4,4-dioxido-2^3-(trifluoromethyl)-4-thia-3,6-diaza-2,5(2,6)-dipyridina-1(1,2)-benzenacycloundecaphane-6-yl)ethyl)glycine] |
| 275 nM |  |  |  | 435% | O=S1(=O)Nc2ccc(C(F)(F)F)c(n2)-c2ccccc2CCCCCN(CC(O)CO)c2cccc1n2 (stereo not drawn) [Compound 128, 6-(2,3-dihydroxypropyl)-2^3-(trifluoromethyl)-4-thia-3,6-diaza-2,5(2,6)-dipyridina-1(1,2)-benzenacycloundecaphane 4,4-dioxide] |
| 265 nM |  |  |  | 506% | O=S1(=O)Nc2ccc(C(F)(F)F)c(n2)-c2ccccc2CCCCCN(C[C@H](O)[C@@H](O)CO)c2cccc1n2 [Compound 129, 2^3-(trifluoromethyl)-6-((2S,3S)-2,3,4-trihydroxybutyl)-4-thia-3,6-diaza-2,5(2,6)-dipyridina-1(1,2)-benzenacycloundecaphane 4,4-dioxide] |
| 2440 nM |  |  |  | 188% | NCCN1CCCCc2ccccc2-c2nc(ccc2C(F)(F)F)NS(=O)(=O)c2cccc1n2 [Compound 130, 6-(2-aminoethyl)-2^3-(trifluoromethyl)-4-thia-3,6-diaza-2,5(2,6)-dipyridina-1(1,2)-benzenacyclodecaphane 4,4-dioxide] |
| 3900 nM |  |  |  | 30.7% | O=S1(=O)Nc2ccc(C(F)(F)F)c(n2)-c2ccccc2CCCCNCCNc2cccc1n2 [Compound 131, 2^3-(trifluoromethyl)-4-thia-3,6,9-triaza-2,5(2,6)-dipyridina-1(1,2)-benzenacyclotridecaphane 4,4-dioxide] |
| 2670 nM |  |  |  | 259% | NCCN1CCCCCc2ccccc2-c2nc(ccc2C(F)(F)F)NS(=O)(=O)c2cccc1n2 [Compound 132, 6-(2-aminoethyl)-2^3-(trifluoromethyl)-4-thia-3,6-diaza-2,5(2,6)-dipyridina-1(1,2)-benzenacycloundecaphane 4,4-dioxide] |
| 457 nM |  |  |  | 569% | O=C1c2ccccc2C(=O)N1CCCN1CCCCCc2ccccc2-c2nc(ccc2C(F)(F)F)NS(=O)(=O)c2cccc1n2 [Compound 133, 2-(3-(4,4-dioxido-2^3-(trifluoromethyl)-4-thia-3,6-diaza-2,5(2,6)-dipyridina-1(1,2)-benzenacycloundecaphane-6-yl)propyl)isoindoline-1,3-dione] |
| 608 nM |  |  |  | 410% | O=C1C2CCCCC2C(=O)N1CCCN1CCCCCc2ccccc2-c2nc(ccc2C(F)(F)F)NS(=O)(=O)c2cccc1n2 (stereo not drawn) [Compound 134, 2-(3-(4,4-dioxido-2^3-(trifluoromethyl)-4-thia-3,6-diaza-2,5(2,6)-dipyridina-1(1,2)-benzenacycloundecaphane-6-yl)propyl)hexahydro-1H-isoindole-1,3(2H)-dione] |
| 154 nM |  |  |  | 651% | O=C(O)CC[C@H]1CCCCc2ccccc2-c2nc(ccc2C(F)(F)F)NS(=O)(=O)c2cccc(n2)N1 [Compound 135, (R)-3-(4,4-dioxido-2^3-(trifluoromethyl)-4-thia-3,6-diaza-2,5(2,6)-dipyridina-1(1,2)-benzenacycloundecaphane-7-yl)propanoic acid] |

— patent US20220071971A1, “MACROCYCLIC COMPOUNDS AND THEIR USE IN THE TREATMENT OF DISEASE” (NOVARTIS AG, priority 2018, published 2022)
